This passage reports IC50 results from patent US10472356B2, “Bicyclic ketone sulfonamide compounds” (AMGEN INC., priority 2015, dated 2019).

Common to all, as to format: cell-based
Assay [1] deals with T1, human Nav1.7 (Homo sapiens, UniProt Q15858).
T1 construct: expressed in transfected cells; host or cells: HEK293
The assay is described as follows: Nav 1.7 IWQ In Vitro Assay (IonWorks Quattro). Conditions: HEK293 cells stably transfected with human Nav 1.7; IonWorks Quattro population patch-clamp; 26th pulse to −20 mV, 5 Hz; cells unclamped 5 to 8 minutes with compound; read-out: hNav1.7 IWQ IC50. As for the experimental part: Nav 1.7 or Nav 1.5 IWQ In Vitro Assay
HEK293 cells stably transfected with either human Nav 1.7 or human Nav 1.5 were recorded in population patch-clamp mode with the IonWorks® Quattro automated electrophysiology system (Molecular Devices, LLC, Sunnyvale, Calif.). Cells were voltage clamped to −110 mV for three seconds (Nav 1.7) or half a second (Nav 1.5) and sodium currents were elicited by a train of 26 depolarizations of 150 msec duration to −20 mV (Nav 1.7) or 0 mV (Nav 1.5) at a frequency of 5 Hz. Cells were then left unclamped for a period of 5 to 8 minutes while a single concentration of test compound was added. Following this compound incubation period, cells were then reclamped to −110 mV for three seconds (Nav1.7) or half a second (Nav1.5) to recover unbound channels and put through the same 26 pulse voltage protocol as above. Peak inward current during the 26th pulse to −20 mV (Nav 1.7) or 0 mV (Nav 1.5) in the presence of compound was divided by the peak inward current evoked by the 26th pulse to −20 mV (Nav1.7) or 0 mV (Nav1.5) in the absence of compound to determine percent inhibition. Concentration-response curves of percent.
(In general: The patch-clamp technique gives a direct electrical read-out from membranes.)

The target of assay [2] is T1, human Nav1.7. The assay can be described thus: Nav 1.7 IWB In Vitro Assay (IonWorks Barracuda). Conditions: HEK293 cells stably transfected with human Nav 1.7; IonWorks Barracuda population patch-clamp; cells clamped to −20 mV for 4 minutes with compound; 26th pulse; read-out: hNav1.7 IWB IC50. The essentials: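 IC50 derived from concentration-response of percent block of the 26th-pulse peak inward current, compound vs none. Protocol: stable human Nav 1.7 HEK293 cells on automated population patch clamp, held at −110 mV, 5 Hz train of 150 ms steps to −20 mV, 4 min compound exposure depolarized at −20 mV, 3 s repolarization, train repeated.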

Assay [3] has as its target T1, human Nav1.7. The assay can be described thus: Nav 1.7 In Vitro PatchXpress (PX) Assay. The conditions noted are these: HEK 293 cells stably transfected with human Nav1.7; PatchXpress whole cell voltage clamp; partially inactivated state (holding potential yielding 20 to 50% inactivation); read-out: hNav1.7 PX IC50. The essentials:
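Percent inhibition of peak sodium current taken after 3 min exposure to one compound concentration, 3–5 cells each, with IC50 curve fits. Partially inactivated channels (20–50% inactivation at holding potential) in Nav1.7-HEK 293 cells, activated by 20 ms steps to −10 mV every 10 s.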

The structures appear in SMILES notation.

Usually IC50 stands for the concentration that gives 50% inhibition.

T1 sequence (Q15858 whole entry): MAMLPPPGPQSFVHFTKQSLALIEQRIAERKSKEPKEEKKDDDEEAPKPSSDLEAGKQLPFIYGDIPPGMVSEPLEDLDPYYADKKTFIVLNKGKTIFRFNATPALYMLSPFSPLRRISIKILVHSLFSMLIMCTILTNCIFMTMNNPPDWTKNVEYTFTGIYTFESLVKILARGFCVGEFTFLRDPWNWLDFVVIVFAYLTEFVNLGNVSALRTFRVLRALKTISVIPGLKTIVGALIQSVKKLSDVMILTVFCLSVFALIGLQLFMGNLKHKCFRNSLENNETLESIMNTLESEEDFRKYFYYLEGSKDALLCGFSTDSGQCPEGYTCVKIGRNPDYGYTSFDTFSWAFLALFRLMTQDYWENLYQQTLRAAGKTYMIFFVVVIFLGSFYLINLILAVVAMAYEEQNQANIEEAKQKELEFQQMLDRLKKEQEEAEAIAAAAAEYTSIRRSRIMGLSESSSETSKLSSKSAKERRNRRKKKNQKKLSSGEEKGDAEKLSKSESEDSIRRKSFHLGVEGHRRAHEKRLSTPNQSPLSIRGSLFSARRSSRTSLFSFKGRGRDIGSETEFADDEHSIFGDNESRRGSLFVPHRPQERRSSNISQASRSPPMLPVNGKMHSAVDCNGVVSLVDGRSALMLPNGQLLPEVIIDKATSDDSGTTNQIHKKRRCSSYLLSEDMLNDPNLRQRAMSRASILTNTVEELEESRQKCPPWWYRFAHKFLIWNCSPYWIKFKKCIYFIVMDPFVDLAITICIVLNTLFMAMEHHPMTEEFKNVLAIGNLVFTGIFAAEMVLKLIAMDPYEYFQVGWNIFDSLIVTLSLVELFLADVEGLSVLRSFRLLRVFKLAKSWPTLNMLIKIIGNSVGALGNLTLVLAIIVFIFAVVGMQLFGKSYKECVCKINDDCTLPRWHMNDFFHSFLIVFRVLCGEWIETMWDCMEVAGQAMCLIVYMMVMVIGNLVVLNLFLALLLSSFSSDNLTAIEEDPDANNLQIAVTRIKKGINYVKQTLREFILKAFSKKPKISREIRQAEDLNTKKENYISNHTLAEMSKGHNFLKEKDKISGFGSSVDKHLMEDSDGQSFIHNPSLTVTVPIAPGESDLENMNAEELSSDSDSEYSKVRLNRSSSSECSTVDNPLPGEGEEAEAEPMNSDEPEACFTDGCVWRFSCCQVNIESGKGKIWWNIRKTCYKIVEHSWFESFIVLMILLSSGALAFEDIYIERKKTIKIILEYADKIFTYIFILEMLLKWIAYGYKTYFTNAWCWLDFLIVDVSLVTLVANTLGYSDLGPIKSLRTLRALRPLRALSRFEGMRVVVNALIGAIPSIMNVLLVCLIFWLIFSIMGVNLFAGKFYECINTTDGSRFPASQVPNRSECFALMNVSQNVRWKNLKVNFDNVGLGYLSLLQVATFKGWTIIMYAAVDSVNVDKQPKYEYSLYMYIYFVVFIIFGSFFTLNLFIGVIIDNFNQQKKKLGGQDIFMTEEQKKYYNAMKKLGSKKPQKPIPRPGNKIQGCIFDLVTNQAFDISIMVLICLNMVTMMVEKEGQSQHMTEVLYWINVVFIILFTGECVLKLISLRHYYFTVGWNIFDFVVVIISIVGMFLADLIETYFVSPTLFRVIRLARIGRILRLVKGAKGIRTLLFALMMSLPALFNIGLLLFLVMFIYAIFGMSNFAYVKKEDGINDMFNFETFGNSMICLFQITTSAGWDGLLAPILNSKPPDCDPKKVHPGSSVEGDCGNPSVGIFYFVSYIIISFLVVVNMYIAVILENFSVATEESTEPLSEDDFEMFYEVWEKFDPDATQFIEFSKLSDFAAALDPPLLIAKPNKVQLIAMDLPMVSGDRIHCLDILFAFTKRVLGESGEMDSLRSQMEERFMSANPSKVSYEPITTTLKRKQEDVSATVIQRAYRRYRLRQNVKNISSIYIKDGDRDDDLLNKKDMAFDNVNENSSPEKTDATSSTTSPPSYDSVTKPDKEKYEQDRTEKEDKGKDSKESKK

As to `COc1cc(-c2cc(F)cc(F)c2)c(F)cc1-n1c2c(ccc1=O)CN(S(=O)(=O)Nc1cccc(F)n1)CC2` (racemic) [Example 14-(Rac), (Rac)-N-(6-fluoro-2-pyridinyl)-2-oxo-1-(2,3′,5′-trifluoro-5-methoxy-4-biphenylyl)-1,5,7,8-tetrahydro-1,6-naphthyridine-6(2H)-sulfonamide], the IC50 in assay [1] is 44.4 nM; in assay [2], 25.6 nM; in assay [3], 74.2 nM.
Take `COc1cc(-c2cc(F)c(F)c(OC)c2)c(F)cc1-n1c2c(ccc1=O)CN(S(=O)(=O)Nc1cccnn1)CC2` [Example 79, P-2-oxo-N-(pyridazin-3-yl)-1-(2,3′,4′-trifluoro-5,5′-dimethoxy-[1,1′-biphenyl]-4-yl)-1,2,7,8-tetrahydro-1,6-naphthyridine-6(5H)-sulfonamide]: the results for the 50% inhibitory concentration (IC50) in assay [1] and in assay [2] were 3.9 nM and 2.6 nM, respectively.
In the case of `COc1cc(-c2ccc(C(F)F)c(F)c2)c(F)cc1-n1c2c(ccc1=O)CN(S(=O)(=O)Nc1cccnn1)CC2` [Example 87, P-1-(4′-(difluoromethyl)-2,3′-difluoro-5-methoxy-[1,1′-biphenyl]-4-yl)-2-oxo-N-(pyridazin-3-yl)-1,2,7,8-tetrahydro-1,6-naphthyridine-6(5H)-sulfonamide], the values for the IC50 in assay [1] and in assay [2] were 12.4 nM and 19 nM, respectively.
On to `COc1cc(CCC(F)(F)F)c(F)cc1-n1c2c(ccc1=O)CN(S(=O)(=O)Nc1ccon1)CC2` [Example 94, P-1-(5-fluoro-2-methoxy-4-(3,3,3-trifluoropropyl)phenyl)-N-(isoxazol-3-yl)-2-oxo-1,2,7,8-tetrahydro-1,6-naphthyridine-6(5H)-sulfonamide], for which the IC50 in assay [1] was determined as 18.7 nM; in assay [2] it was 33.5 nM.
In the case of `COc1cc(CCC(F)(F)F)c(F)cc1-n1c2c(ccc1=O)CN(S(=O)(=O)Nc1cccnn1)CC2` [Example 95, P-1-(5-fluoro-2-methoxy-4-(3,3,3-trifluoropropyl)phenyl)-2-oxo-N-(pyridazin-3-yl)-1,2,7,8-tetrahydro-1,6-naphthyridine-6(5H)-sulfonamide], the IC50 in assay [1] was found to be 21 nM; in assay [2] it was 36.5 nM.
As for `COc1cc(-c2ccc(Cl)c(C)c2)c(F)cc1-n1c2c(ccc1=O)CN(S(=O)(=O)Nc1ccon1)CC2` (racemic) [Example 24-(Rac), (Rac)-1-(4′-chloro-2-fluoro-5-methoxy-3′-methyl-4-biphenylyl)-N-3-isoxazolyl-2-oxo-1,5,7,8-tetrahydro-1,6-naphthyridine-6(2H)-sulfonamide], the IC50 in assay [1] is 6.7 nM; in assay [3] it was 73.7 nM.
As to `COc1cc(-c2ccc(OC)c(C(F)(F)F)c2)c(F)cc1-n1c2c(ccc1=O)CN(S(=O)(=O)Nc1cccnn1)CC2` [Example 82, P-1-(2-fluoro-4′,5-dimethoxy-3′-(trifluoromethyl)-[1,1′-biphenyl]-4-yl)-2-oxo-N-(pyridazin-3-yl)-1,2,7,8-tetrahydro-1,6-naphthyridine-6(5H)-sulfonamide], the IC50 in assay [1] turned out to be 15.6 nM; in assay [2], 25.8 nM.
In the case of `COc1cc(-c2cnc(OC)c(C(F)(F)F)c2)c(F)cc1-n1c2c(ccc1=O)CN(S(=O)(=O)Nc1cccnn1)CC2` [Example 80, P-1-(5-fluoro-2-methoxy-4-(6-methoxy-5-(trifluoromethyl)pyridin-3-yl)phenyl)-2-oxo-N-(pyridazin-3-yl)-1,2,7,8-tetrahydro-1,6-naphthyridine-6(5H)-sulfonamide], the results for the IC50 in assay [1] and in assay [2] were 5.4 nM and 13.9 nM, respectively.
The matching figures for `COc1cc(-c2cc(F)c(F)c(C(F)F)c2)c(F)cc1-n1c2c(ccc1=O)CN(S(=O)(=O)Nc1cccnn1)CC2` [Example 86, P-1-(3′-(difluoromethyl)-2,4′,5′-trifluoro-5-methoxy-[1,1′-biphenyl]-4-yl)-2-oxo-N-(pyridazin-3-yl)-1,2,7,8-tetrahydro-1,6-naphthyridine-6(5H)-sulfonamide]: 7.1 nM and 14.3 nM.
For `COc1cc(-c2cc(F)cc(F)c2)c(F)cc1-n1c2c(ccc1=O)CN(S(=O)(=O)Nc1ccon1)CC2` (single isomer, unassigned) [Example 25-P, P-N-3-isoxazolyl-2-oxo-1-(2,3′,5′-trifluoro-5-methoxy-4-biphenylyl)-1,5,7,8-tetrahydro-1,6-naphthyridine-6(2H)-sulfonamide], the values for the IC50 in assay [1] and in assay [3] were 7.2 nM and 176 nM, respectively.
As for `COc1cc(-c2ccc(F)c(C(F)F)c2)c(F)cc1-n1c2c(ccc1=O)CN(S(=O)(=O)Nc1cccnn1)CC2` [Example 85, P-1-(3′-(difluoromethyl)-2,4′-difluoro-5-methoxy-[1,1′-biphenyl]-4-yl)-2-oxo-N-(pyridazin-3-yl)-1,2,7,8-tetrahydro-1,6-naphthyridine-6(5H)-sulfonamide], the IC50 in assay [1] was found to be 4.3 nM; in assay [2], 17.4 nM.
`COc1cc(-c2cc(OC)c(-n3c4c(ccc3=O)CN(S(=O)(=O)Nc3cccnn3)CC4)cc2F)cc(C(F)(F)F)c1` [Example 83, P-1-(2-fluoro-3′,5-dimethoxy-5′-(trifluoromethyl)-[1,1′-biphenyl]-4-yl)-2-oxo-N-(pyridazin-3-yl)-1,2,7,8-tetrahydro-1,6-naphthyridine-6(5H)-sulfonamide]: the 50% inhibitory concentration (IC50) in assay [1] stood at 3.4 nM; in assay [2], 5.1 nM.
The matching figures for `COc1cc(-c2cc(F)cc(C(F)F)c2)c(F)cc1-n1c2c(ccc1=O)CN(S(=O)(=O)Nc1cccnn1)CC2` [Example 84, P-1-(3′-(difluoromethyl)-2,5′-difluoro-5-methoxy-[1,1′-biphenyl]-4-yl)-2-oxo-N-(pyridazin-3-yl)-1,2,7,8-tetrahydro-1,6-naphthyridine-6(5H)-sulfonamide]: 8.3 nM and 17.1 nM.
As to `COc1cc(-c2ccc(F)c(OC(F)(F)F)c2)c(F)cc1-n1c2c(ccc1=O)CN(S(=O)(=O)Nc1cccnn1)CC2` [Example 81, P-1-(2,4′-difluoro-5-methoxy-3′-(trifluoromethoxy)-[1,1′-biphenyl]-4-yl)-2-oxo-N-(pyridazin-3-yl)-1,2,7,8-tetrahydro-1,6-naphthyridine-6(5H)-sulfonamide], the IC50 worked out at 3.9 nM in assay [1] and 8.6 nM in assay [2].
Take `COc1cc(CCC(F)(F)F)c(Cl)cc1-n1c2c(ccc1=O)CN(S(=O)(=O)Nc1cccnn1)CC2` (single isomer, unassigned) [Example 96-P, P-1-(5-chloro-2-methoxy-4-(3,3,3-trifluoropropyl)phenyl)-2-oxo-N-(pyridazin-3-yl)-1,2,7,8-tetrahydro-1,6-naphthyridine-6(5H)-sulfonamide]: the IC50 in assay [1] is 9 nM; in assay [2], 33.9 nM.
Consider `COc1cc(-c2ccc(Cl)c(C)c2)c(F)cc1-n1c2c(ccc1=O)CN(S(=O)(=O)Nc1ncccn1)CC2` (single isomer, unassigned) [Example 30-M, M-1-(4′-chloro-2-fluoro-5-methoxy-3′-methyl-4-biphenylyl)-2-oxo-N-2-pyrimidinyl-1,5,7,8-tetrahydro-1,6-naphthyridine-6(2H)-sulfonamide], for which the IC50 worked out at 3910 nM in assay [2] and 24900 nM in assay [3].
On to `COc1cc(-c2cc(F)cc(F)c2)c(F)cc1-n1c2c(ccc1=O)CN(S(=O)(=O)Nc1ccncn1)CC2` [Example 88, P-2-oxo-N-(pyrimidin-4-yl)-1-(2,3′,5′-trifluoro-5-methoxy-[1,1′-biphenyl]-4-yl)-1,2,7,8-tetrahydro-1,6-naphthyridine-6(5H)-sulfonamide], for which the IC50 came out at 31.2 nM in assay [2] and 475 nM in assay [3].
On to `COc1cc(-c2cc(C)ccc2Cl)c(F)cc1-n1c2c(ccc1=O)CN(S(=O)(=O)Nc1cccnn1)CC2` [Example 43, P-1-(2′-chloro-2-fluoro-5-methoxy-5′-methyl-4-biphenylyl)-2-oxo-N-3-pyridazinyl-1,5,7,8-tetrahydro-1,6-naphthyridine-6(2H)-sulfonamide], for which the IC50 in assay [2] worked out at 3.8 nM; in assay [3], 156 nM.
As for `COc1cc(-c2cccc(C3CC3)c2)c(F)cc1-n1c2c(ccc1=O)CN(S(=O)(=O)Nc1cccnn1)CC2` [Example 42, P-1-(3′-cyclopropyl-2-fluoro-5-methoxy-4-biphenylyl)-2-oxo-N-3-pyridazinyl-1,5,7,8-tetrahydro-1,6-naphthyridine-6(2H)-sulfonamide], the 50% inhibitory concentration (IC50) in assay [2] is 7.8 nM; in assay [3], 76.6 nM.
